{"source": "paper PMC8286840", "about": "“Identifying SARS-CoV-2 antiviral compounds by screening for small molecule inhibitors of Nsp3 papain-like protease” (Biochemical Journal, 2021)", "key": {"[1]": {"target": "T1, SARS-CoV-2 PLpro (nsp3 1564–1878) (Severe acute respiratory syndrome coronavirus 2, UniProt P0DTD1)", "experiment": "biochemical", "design": "FRET-quenched peptide (Pro3) cleavage by PLpro, 10 min pre-incubation, slope over 20 min, normalised to no-compound control", "details": "high concentration screen, read-out: % of control remaining"}, "[2]": {"target": "T1, SARS-CoV-2 PLpro (nsp3 1564–1878)", "experiment": "biochemical", "design": "FRET-quenched peptide (Pro3) cleavage by PLpro, 10 min pre-incubation, slope over 20 min, normalised to no-compound control", "details": "low concentration screen, read-out: % of control remaining"}}, "note": "Where a name gives a salt, the structure may show the parent alone. Read-outs that look alike come from different tables or passages of the source."}
{"smiles": "COc1cc(C(O)CO)ccc1OS(=O)(=O)O", "note": "(centres unmarked) [MHPG sulfate potassium]", "values": [{"measurement": "remaining activity at 3.75 µM", "setting": "[1]; Well no.=710", "result": 90.8, "unit": "%"}, {"measurement": "remaining activity at 1.25 µM", "setting": "[2]; Well no.=710", "result": 93, "unit": "%"}]}
{"smiles": "CC[C@]12C=CCN3CC[C@@]4(c5cc([C@@]6(C(=O)OC)C[C@@H]7C[C@@H](C(C)(F)F)CN(Cc8c6[nH]c6ccccc86)C7)c(OC)cc5N(C)[C@H]4[C@@](O)(C(=O)OC)[C@@H]1OC(C)=O)[C@@H]32", "note": "[Vinflunine Tartrate]", "values": [{"measurement": "remaining activity at 3.75 µM", "setting": "[1]; Well no.=4892", "result": 94.7, "unit": "%"}, {"measurement": "remaining activity at 1.25 µM", "setting": "[2]; Well no.=4892", "result": 95.2, "unit": "%"}]}
{"smiles": "C[C@]12CC[C@@H](O)C[C@@H]1CC[C@@H]1[C@@H]2CC[C@]2(C)C(=O)CC[C@@H]12", "note": "[Androsterone]", "values": [{"measurement": "remaining activity at 3.75 µM", "setting": "[1]; Well no.=298", "result": 99.3, "unit": "%"}, {"measurement": "remaining activity at 3.75 µM", "setting": "[1]; Well no.=6435", "result": 97.6, "unit": "%"}, {"measurement": "remaining activity at 1.25 µM", "setting": "[2]; Well no.=298", "result": 98.5, "unit": "%"}, {"measurement": "remaining activity at 1.25 µM", "setting": "[2]; Well no.=6435", "result": 99.9, "unit": "%"}]}
{"smiles": "OC[C@@H](O)[C@@H](O)[C@H](O)[C@H](O)CO", "note": "[D-Mannitol]", "values": [{"measurement": "remaining activity at 3.75 µM", "setting": "[1]; Well no.=6397", "result": 96.4, "unit": "%"}, {"measurement": "remaining activity at 3.75 µM", "setting": "[1]; Well no.=8434", "result": 96.1, "unit": "%"}, {"measurement": "remaining activity at 1.25 µM", "setting": "[2]; Well no.=6397", "result": 104, "unit": "%"}, {"measurement": "remaining activity at 1.25 µM", "setting": "[2]; Well no.=8434", "result": 96.7, "unit": "%"}]}
{"smiles": "CC(C)=CC[C@@H](OC(=O)C=C(C)C)C1=CC(=O)c2c(O)ccc(O)c2C1=O", "values": [{"measurement": "remaining activity at 3.75 µM", "setting": "[1]; Well no.=3305", "result": 85.3, "unit": "%"}, {"measurement": "remaining activity at 1.25 µM", "setting": "[2]; Well no.=3305", "result": 89.6, "unit": "%"}]}
{"smiles": "COc1cc2nc(N(C)CCCNC(=O)C3CCCO3)nc(N)c2cc1OC", "note": "(centres unmarked) [Alfuzosin]", "values": [{"measurement": "remaining activity at 3.75 µM", "setting": "[1]; Well no.=1809", "result": 97.8, "unit": "%"}, {"measurement": "remaining activity at 3.75 µM", "setting": "[1]; Well no.=6749", "result": 92.3, "unit": "%"}, {"measurement": "remaining activity at 1.25 µM", "setting": "[2]; Well no.=1809", "result": 98.4, "unit": "%"}, {"measurement": "remaining activity at 1.25 µM", "setting": "[2]; Well no.=6749", "result": 100, "unit": "%"}]}
{"smiles": "COc1cc(F)c(C(C)C)cc1-c1ccc(C(F)(F)F)cc1CN1C(=O)O[C@H](c2cc(C(F)(F)F)cc(C(F)(F)F)c2)[C@@H]1C", "note": "[Anacetrapib (MK-0859)]", "values": [{"measurement": "remaining activity at 3.75 µM", "setting": "[1]; Well no.=5312", "result": 93.1, "unit": "%"}, {"measurement": "remaining activity at 1.25 µM", "setting": "[2]; Well no.=5312", "result": 94.2, "unit": "%"}]}
{"smiles": "N=C(N)SCCN", "note": "[2-(2-Aminoethyl)isothiourea dihydrobromide]", "values": [{"measurement": "remaining activity at 3.75 µM", "setting": "[1]; Well no.=353", "result": 97.5, "unit": "%"}, {"measurement": "remaining activity at 1.25 µM", "setting": "[2]; Well no.=353", "result": 96.2, "unit": "%"}]}
{"smiles": "CC(=O)c1ccc2c(c1)[C@H](NC(=O)c1ccc(F)c(Cl)c1)[C@H](O)C(C)(C)O2", "note": "[Tonabersat]", "values": [{"measurement": "remaining activity at 3.75 µM", "setting": "[1]; Well no.=5960", "result": 94.8, "unit": "%"}, {"measurement": "remaining activity at 1.25 µM", "setting": "[2]; Well no.=5960", "result": 92.7, "unit": "%"}]}
{"smiles": "CC(C)=CCC/C(C)=C/CC/C(C)=C/CSc1ccccc1C(=O)O", "note": "[Farnesylthiosalicylic acid]", "values": [{"measurement": "remaining activity at 3.75 µM", "setting": "[1]; Well no.=567", "result": 102, "unit": "%"}, {"measurement": "remaining activity at 1.25 µM", "setting": "[2]; Well no.=567", "result": 102, "unit": "%"}]}
{"smiles": "COc1ccnc(C[S+]([O-])c2nc3cc(OC(F)F)ccc3[nH]2)c1OC", "note": "(centres unmarked) [Pantoprazole]", "values": [{"measurement": "remaining activity at 3.75 µM", "setting": "[1]; Well no.=2091", "result": 99.9, "unit": "%"}, {"measurement": "remaining activity at 1.25 µM", "setting": "[2]; Well no.=2091", "result": 101, "unit": "%"}]}
{"smiles": "COC(=O)c1sccc1S(=O)(=O)Nc1ccc(Nc2ccccc2)cc1OC", "note": "[GSK0660]", "values": [{"measurement": "remaining activity at 3.75 µM", "setting": "[1]; Well no.=5869", "result": 109, "unit": "%"}, {"measurement": "remaining activity at 1.25 µM", "setting": "[2]; Well no.=5869", "result": 111, "unit": "%"}]}
{"smiles": "COC(=O)c1ccc2c(c1)nc(NC(=O)c1ccccc1)n2CCCc1ccccc1", "note": "[BRD4770]", "values": [{"measurement": "remaining activity at 3.75 µM", "setting": "[1]; Well no.=5781", "result": 96.3, "unit": "%"}, {"measurement": "remaining activity at 1.25 µM", "setting": "[2]; Well no.=5781", "result": 97, "unit": "%"}]}
{"smiles": "NCCc1ccc(O)cc1", "note": "[Tyramine]", "values": [{"measurement": "remaining activity at 3.75 µM", "setting": "[1]; Well no.=6541", "result": 101, "unit": "%"}, {"measurement": "remaining activity at 1.25 µM", "setting": "[2]; Well no.=6541", "result": 107, "unit": "%"}]}
{"smiles": "CC(C)c1ccc(C(=O)N=C(N)N)cc1S(C)(=O)=O", "note": "[N''-[4-isopropyl-3-(methylsulfonyl)benzoyl]guanidine]", "values": [{"measurement": "remaining activity at 3.75 µM", "setting": "[1]; Well no.=5586", "result": 91.3, "unit": "%"}, {"measurement": "remaining activity at 1.25 µM", "setting": "[2]; Well no.=5586", "result": 91.7, "unit": "%"}]}
{"smiles": "CC1=C(C(=O)O)N2C(=O)[C@@H](NC(=O)[C@H](N)c3ccccc3)[C@H]2SC1", "note": "[Cephalexin hydrate]", "values": [{"measurement": "remaining activity at 3.75 µM", "setting": "[1]; Well no.=34", "result": 95.3, "unit": "%"}, {"measurement": "remaining activity at 1.25 µM", "setting": "[2]; Well no.=34", "result": 95.4, "unit": "%"}]}
{"smiles": "CCCCCCCCCCCCCC/C(C(=O)O)=C(\\C)C(=O)O", "note": "[Chaetomellic acid A]", "values": [{"measurement": "remaining activity at 3.75 µM", "setting": "[1]; Well no.=3141", "result": 96, "unit": "%"}, {"measurement": "remaining activity at 1.25 µM", "setting": "[2]; Well no.=3141", "result": 95.8, "unit": "%"}]}
{"smiles": "Cc1[nH]c(=O)c(C#N)cc1-c1ccncc1", "note": "[Milrinone]", "values": [{"measurement": "remaining activity at 3.75 µM", "setting": "[1]; Well no.=832", "result": 101, "unit": "%"}, {"measurement": "remaining activity at 3.75 µM", "setting": "[1]; Well no.=2150", "result": 97.1, "unit": "%"}, {"measurement": "remaining activity at 1.25 µM", "setting": "[2]; Well no.=832", "result": 101, "unit": "%"}, {"measurement": "remaining activity at 1.25 µM", "setting": "[2]; Well no.=2150", "result": 95.5, "unit": "%"}]}
{"smiles": "NC(=O)c1noc([C@H](CCCC2CCCCC2)CC(=O)NO)n1", "note": "[UK 383367]", "values": [{"measurement": "remaining activity at 3.75 µM", "setting": "[1]; Well no.=8384", "result": 90.6, "unit": "%"}, {"measurement": "remaining activity at 1.25 µM", "setting": "[2]; Well no.=8384", "result": 90.4, "unit": "%"}]}
{"smiles": "CC(=O)NNC(=O)N1Cc2ccccc2Oc2ccc(Cl)cc21", "note": "[SC 19220]", "values": [{"measurement": "remaining activity at 3.75 µM", "setting": "[1]; Well no.=1408", "result": 100, "unit": "%"}, {"measurement": "remaining activity at 1.25 µM", "setting": "[2]; Well no.=1408", "result": 101, "unit": "%"}]}
{"smiles": "CC1=C(CC(=O)O)c2cc(F)ccc2/C1=C\\c1ccc(S(C)(=O)=O)cc1", "note": "[Sulindac sulfone]", "values": [{"measurement": "remaining activity at 3.75 µM", "setting": "[1]; Well no.=1500", "result": 96.6, "unit": "%"}, {"measurement": "remaining activity at 1.25 µM", "setting": "[2]; Well no.=1500", "result": 95.3, "unit": "%"}]}
